Test systems include DU-145 prostate; SW-620 colon; HL-60(TB) leukemia; MDA-N; SNB-19 CNS; PC-3 prostate; HCC-2998 colon; RXF 393 renal; OVCAR-4 ovarian; TK-10 renal; SK-MEL-5 melanoma; K-562 leukemia; NCI-H226 lung; SR leukemia; CAKI-1 renal; IGROV1 ovarian; CCRF-CEM leukemia; HCT-15 colon; HOP-92 NSCLC; U251 CNS.
Holding throughout (assay): NCI anticancer screen, dose series, 48 h

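All cell lines were grown in 96-well plates and treated with compound for 48 hours. TGI denotes the concentration required for complete inhibition of growth.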

As to `CCOC(=O)c1ccc(-c2cccs2)n1C`, the TGI in the assay with DU-145 prostate, in the assay with SW-620 colon, with HL-60(TB) leukemia, in the assay on MDA-N, in the assay on SNB-19 CNS and in the assay with PC-3 prostate was above 100 µM in each case. Further, the TGI in the assay with HCC-2998 colon, with RXF 393 renal, with OVCAR-4 ovarian, in the assay on TK-10 renal, with SK-MEL-5 melanoma and in the assay with K-562 leukemia was above 100 µM in each case. Further, the TGI in the assay on NCI-H226 lung, in the assay with SR leukemia, with CAKI-1 renal, with IGROV1 ovarian, in the assay on CCRF-CEM leukemia and in the assay with HCT-15 colon was above 100 µM each time. Besides, the TGI in the assay on HOP-92 NSCLC was above 94.8 µM; in the assay on U251 CNS, above 100 µM.

Consider `NC(=O)ON=C1CCN(Cc2ccccc2)CC1`, for which the TGI with DU-145 prostate, in the assay on SW-620 colon, with HL-60(TB) leukemia, with MDA-N, with SNB-19 CNS and in the assay on PC-3 prostate was above 100 µM in each case. Further, the TGI with HCC-2998 colon, with RXF 393 renal, with OVCAR-4 ovarian, in the assay with TK-10 renal, with SK-MEL-5 melanoma and in the assay on K-562 leukemia was above 100 µM throughout. In addition, the TGI in the assay with NCI-H226 lung, with SR leukemia, in the assay on CAKI-1 renal, in the assay with IGROV1 ovarian, with CCRF-CEM leukemia and in the assay on HCT-15 colon was above 100 µM each time. Moreover, the TGI with HOP-92 NSCLC and in the assay on U251 CNS was above 100 µM in each case.

Take `CCC(C#N)N(Cc1ccc(CN(C(=O)c2ccccc2)C(C#N)CC)cc1)C(=O)c1ccccc1` (stereo not given): the TGI in the assay on DU-145 prostate is above 100 µM; in the assay with SW-620 colon, 93 µM; in the assay with HL-60(TB) leukemia, 84.1 µM; in the assay with MDA-N, above 100 µM; in the assay on SNB-19 CNS, above 100 µM; with PC-3 prostate, above 100 µM. Moreover, the TGI with HCC-2998 colon was 36.7 µM; in the assay with RXF 393 renal, above 100 µM; with OVCAR-4 ovarian, 80.9 µM; in the assay on TK-10 renal it was 74.4 µM; with SK-MEL-5 melanoma, 25.8 µM; in the assay on K-562 leukemia, above 100 µM. Besides, the TGI in the assay with NCI-H226 lung was 78.1 µM; in the assay on SR leukemia it was above 100 µM; in the assay on CAKI-1 renal, above 100 µM; in the assay on IGROV1 ovarian it was 61.8 µM; in the assay on CCRF-CEM leukemia, 51.1 µM; in the assay on HCT-15 colon, above 100 µM. Moreover, the values for the TGI in the assay on HOP-92 NSCLC and in the assay with U251 CNS were 35.3 µM and 56.1 µM, respectively.

Turning to `NC(=S)SC1=NNC2(C(=O)N1)c1ccccc1-c1ccccc12`, the TGI with DU-145 prostate, with SW-620 colon, in the assay with HL-60(TB) leukemia, in the assay on MDA-N, with SNB-19 CNS and in the assay with PC-3 prostate was above 10 µM each time. The TGI in the assay with HCC-2998 colon, in the assay with RXF 393 renal, in the assay with OVCAR-4 ovarian, in the assay on TK-10 renal, in the assay on SK-MEL-5 melanoma and in the assay with NCI-H226 lung was above 10 µM each time. For the same compound, the TGI in the assay with SR leukemia, with CAKI-1 renal, in the assay with IGROV1 ovarian, in the assay on CCRF-CEM leukemia, in the assay on HCT-15 colon and in the assay with HOP-92 NSCLC was above 10 µM throughout.

Consider `CN(C)C(=O)c1nnsc1NN=O`, for which the TGI in the assay with DU-145 prostate, in the assay on SW-620 colon, in the assay on HL-60(TB) leukemia, in the assay with MDA-N, with SNB-19 CNS and in the assay on PC-3 prostate was above 100 µM in each case. Also, the TGI in the assay on HCC-2998 colon, in the assay on RXF 393 renal, in the assay on OVCAR-4 ovarian, in the assay with SK-MEL-5 melanoma, with K-562 leukemia and in the assay with NCI-H226 lung was above 100 µM throughout. The TGI with SR leukemia, in the assay on CAKI-1 renal, in the assay on IGROV1 ovarian, in the assay on CCRF-CEM leukemia, in the assay with HCT-15 colon and in the assay on HOP-92 NSCLC was above 100 µM each time. The TGI in the assay with U251 CNS was above 100 µM.

On to `Brc1ccc(-c2ccc(-c3ccc(-c4ccc(Br)s4)s3)s2)s1`, for which the TGI with DU-145 prostate, in the assay on SW-620 colon, in the assay with HL-60(TB) leukemia, with MDA-N, with PC-3 prostate and in the assay on HCC-2998 colon was above 100 µM each time. Also, the TGI in the assay with RXF 393 renal, in the assay with OVCAR-4 ovarian, in the assay with TK-10 renal, in the assay with SK-MEL-5 melanoma, in the assay with K-562 leukemia and in the assay with NCI-H226 lung was above 100 µM in each case. Besides, the TGI in the assay with SR leukemia, in the assay on CAKI-1 renal, in the assay on IGROV1 ovarian, with CCRF-CEM leukemia, with HCT-15 colon and in the assay with HOP-92 NSCLC was above 100 µM each time. This compound showed a TGI in the assay with U251 CNS above 100 µM.

On to `C=CC1(c2ccc(Cl)c(Cl)c2)OCCO1`, for which the TGI in the assay with DU-145 prostate is above 100 µM; with SW-620 colon it was above 100 µM; with HL-60(TB) leukemia, 67.5 µM; with MDA-N it was above 100 µM; with SNB-19 CNS, above 100 µM; in the assay with PC-3 prostate, above 100 µM. Moreover, the TGI in the assay on HCC-2998 colon, in the assay on RXF 393 renal, in the assay on OVCAR-4 ovarian, in the assay on TK-10 renal, in the assay with SK-MEL-5 melanoma and with K-562 leukemia was above 100 µM each time. For the same compound, the TGI in the assay on NCI-H226 lung, in the assay on SR leukemia, in the assay with IGROV1 ovarian, in the assay on CCRF-CEM leukemia, in the assay with HCT-15 colon and in the assay with HOP-92 NSCLC was above 100 µM each time. The compound further had a TGI in the assay on U251 CNS above 100 µM.

For the origin of these results see PubChem BioAssay (NCI).
